One assay addresses T1, human LXRβ (Homo sapiens, UniProt P55055).
T1 construct: biotin (biotinylated); made in house; host or cells: E. coli (crude extract)
T1 sequence (P55055 1-460): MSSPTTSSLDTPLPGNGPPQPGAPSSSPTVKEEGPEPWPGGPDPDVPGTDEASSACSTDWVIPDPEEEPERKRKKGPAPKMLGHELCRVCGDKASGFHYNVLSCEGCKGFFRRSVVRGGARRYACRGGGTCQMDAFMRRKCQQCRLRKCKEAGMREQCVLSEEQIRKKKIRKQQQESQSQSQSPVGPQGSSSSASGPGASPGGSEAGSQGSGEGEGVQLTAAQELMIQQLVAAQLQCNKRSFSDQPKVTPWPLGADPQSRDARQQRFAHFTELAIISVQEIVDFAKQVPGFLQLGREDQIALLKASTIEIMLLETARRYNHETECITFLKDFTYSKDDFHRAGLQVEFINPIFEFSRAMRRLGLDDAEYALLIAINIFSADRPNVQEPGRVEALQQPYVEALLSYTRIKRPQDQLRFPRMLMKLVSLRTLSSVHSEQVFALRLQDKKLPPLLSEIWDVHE
The experiment in a line: Ligand-binding test procedure for human LXRβ (3H T0901317 tracer, flash plates).

For the next assay, the target named is T2, human LXRα (Homo sapiens, UniProt Q13133).
T2 construct: biotin (biotinylated); made in house; host or cells: E. coli (crude extract)
T2 sequence (Q13133 1-447): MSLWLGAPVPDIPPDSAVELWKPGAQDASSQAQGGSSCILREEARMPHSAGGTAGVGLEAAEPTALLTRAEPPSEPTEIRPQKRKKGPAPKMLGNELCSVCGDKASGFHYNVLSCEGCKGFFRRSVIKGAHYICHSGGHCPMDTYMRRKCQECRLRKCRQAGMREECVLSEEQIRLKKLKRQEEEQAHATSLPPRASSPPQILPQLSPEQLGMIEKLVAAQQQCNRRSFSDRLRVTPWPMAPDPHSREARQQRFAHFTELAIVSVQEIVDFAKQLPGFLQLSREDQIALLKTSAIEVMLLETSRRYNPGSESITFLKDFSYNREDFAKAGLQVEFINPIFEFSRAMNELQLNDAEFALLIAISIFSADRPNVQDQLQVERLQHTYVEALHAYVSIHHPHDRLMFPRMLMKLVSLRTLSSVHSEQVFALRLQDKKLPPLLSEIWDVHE
Description: Ligand-binding test procedure for human LXRα (3H T0901317 tracer, flash plates). The settings on record: biotinylated hLXRα, tracer 3H T0901317.

A further assay deals with ABCA1 gene. The experiment in a line: Quantitative analysis of ABCA1 gene regulation in THP-1 cells (real-time PCR). In kind it is cell-based, human. As to conditions: read-out: EC50 ABCA1. How it is done: The compounds of formula (I) effect on the regulation of the ABCA1 gene was evaluated using the following procedure.
The THP-1 monocytic cell line (ATCC # TIB-202) was obtained from American Type Culture Collection (Manassas, Va.) and cultured in RPMI 1640 medium (Gibco, Carlsbad, Calif.) containing 10% FBS, 2 mM L-glutamine, and 55 uM beta-Mercaptoethanol (BME). […] Differentiated THP-1 cells were treated with test compounds or ligands dissolved in DMSO (Sigma, D-8779) in culture medium lacking phorbal ester. […] Unstimulated cells treated with vehicle were included as negative controls on each plate. An LXR agonist reference, N-(2,2,2-trifluoro-ethyl)-N-[4-(2,2,2-trifluoro-1-hydroxy-1-trifluoromethyl-ethyl)-phenyl]-benzenesulfonamide (Schultz, Joshua R., Genes & Development (2000), 14(22), 2831-2838), was dosed at 1.0 uM and served as a positive control. […] Results of antagonist analysis are expressed as % antagonism and IC50 (in μM).
Total cellular RNA was isolated from treated cells cultured in 96-well plates using PrepStation 6100 (Applied Biosystems, Foster City, Calif.), according to the manufacturer's recommendations. RNA was resuspended in ribonuclease-free water and stored at −70° C. prior to analysis. RNA concentrations were quantitated with RiboGreen test procedure, #R-11490 (Molecular Probes, Eugene, Oreg.).
Gene-specific mRNA quantitation was performed by real-time PCR with the Perkin Elmer Corp. chemistry on an ABI Prism 7700 Sequence detection system (Applied Biosystems, Foster City, Calif.) according to the manufacturer's instructions. Samples (50-100 ng) of total RNA were assayed in duplicate or triplicate in 50 μl reactions using one-step RT-PCR and the standard curve method to estimate specific mRNA concentrations. Sequences of gene-specific primer and probe sets were designed with Primer Express Software (Applied Biosystems, Foster City, Calif.). […] RT and PCR reactions were performed according to PE Applied Biosystem's protocol for Taqman Gold RT-PCR or Qiagen's protocol for Quantitect probe RT-PCR. Relative levels of ABCA1 mRNA are normalized using GAPDH mRNA or 18S rRNA probe/primer sets purchased commercially (Applied Biosystems, Foster City, Calif.).
Mean, standard deviation and statistical significance of duplicate evaluations of RNA samples were assessed using ANOVA, one-way analysis of variance using SAS analysis.

The mark [1] stands for this setting: Gene regulation by LXR (Human), differentiated THP-1 cells, 18 hrs, ABCA1 mRNA.

pEC50, pIC50: −log10 of the molar value. Where two headings read alike, the source gives them in different places.

In the case of `CCc1nc2c(C(F)(F)F)cccc2n1-c1ccc(Oc2cccc(S(C)(=O)=O)c2)cc1` [Example 67, 2 ethyl-1-{4-[3-(methylsulfonyl)phenoxy]phenyl}-4-(trifluoromethyl)-1H-benzimidazole], the negative logarithm of the IC50 (pIC50) is 7.00 at human LXRβ and 6.71 on human LXRα. For the same compound, the pEC50 in the assay on ABCA1 gene (setting [1]) is 6.07.
As to `CCc1nc2c(C(F)(F)F)cccc2n1-c1ccc(Oc2cc(F)cc(S(C)(=O)=O)c2)cc1` [Example 69, 2-ethyl-1-{4-[3-fluoro-5-(methylsulfonyl)phenoxy]-phenyl}-4-(trifluoromethyl)-1H-benzimidazole], the pIC50 on human LXRβ was 7.70; on human LXRα it was 6.55. In addition, the pEC50 with ABCA1 gene (setting [1]) is 6.61.
For the compound `CCS(=O)(=O)c1cccc(Oc2ccc(-n3c(C(F)(F)F)nc4c(C(F)(F)F)cccc43)cc2)c1` [Example 71, 1-{4-[3-(ethylsulfonyl)phenoxy]phenyl}-2,4-bis(trifluoromethyl)-1H-benzimidazole], the pIC50 on human LXRβ is 7.08; on human LXRα, 5.96. Further, the pEC50 in the assay with ABCA1 gene (Homo sapiens, THP-1, 18 h) is 6.54.
Turning to `CC(C)S(=O)(=O)c1cccc(Oc2ccc(-n3c(C(F)(F)F)nc4c(C(F)(F)F)cccc43)cc2)c1` [Example 73, 1-{4-[3-(isopropylsulfonyl)phenoxy]phenyl}-2,4-bis(trifluoromethyl)-1H-benzimidazole], the pIC50 on human LXRβ was 7.33; on human LXRα it was 6.10. The pEC50 in the assay on ABCA1 gene (setting [1]) was 6.33.
For the compound `COc1ccc(-n2c(C(F)(F)c3ccccc3)nc3c(C(F)(F)F)cccc32)cc1` [Example 74, 2-[difluoro(phenyl)methyl]-1-(4-methoxyphenyl)-4-(trifluoromethyl)-1H-benzimidazole], the negative logarithm of the IC50 (pIC50) was 7.49 at human LXRβ and 6.20 on human LXRα. Besides, in the assay with ABCA1 gene (setting [1]), the pEC50 was 6.36.
Turning to `Cc1nc2c(C(F)(F)F)cccc2n1-c1cccc(-c2cccc(S(C)(=O)=O)c2)c1` [Example 75, 2-methyl-1-[3′-(methylsulfonyl)biphenyl-3-yl]-4-(trifluoromethyl)-1H-benzimidazole], the values for the pIC50 on human LXRβ and on human LXRα were 7.90 and 6.52, respectively. For the same compound, the pEC50 in the assay on ABCA1 gene (Homo sapiens, THP-1, 18 h) was 6.67.
The matching figures for `Cc1nc2c(C(F)(F)F)cccc2n1-c1cccc(Oc2cccc(S(=O)(=O)CCCS(C)(=O)=O)c2)c1` [Example 76, 2-methyl-1-[3-(3-{[3-(methylsulfonyl)propyl]sulfonyl}phenoxy)phenyl]-4-(trifluoromethyl)-1H-benzimidazole]: 7.70, 6.50 and 6.81.
Regarding `CS(=O)(=O)c1cc(F)cc(Oc2ccc(Cl)c(-n3cnc4c(C(F)(F)F)cccc43)c2)c1` [Example 82, 1-{2-chloro-5-[3-fluoro-5-(methylsulfonyl)phenoxy]phenyl}-4-(trifluoromethyl)-1H-benzimidazole], the pIC50 at human LXRβ was 8.31; on human LXRα it was 6.99. The pEC50 with ABCA1 gene (Homo sapiens, THP-1, 18 h) is 5.92.
Take `CS(=O)(=O)c1ccc(Oc2ccc(Cl)c(-n3cnc4c(C(F)(F)F)cccc43)c2)cc1` [Example 83, 1-{2-chloro-5-[4-(methylsulfonyl)phenoxy]phenyl}-4-(trifluoromethyl)-1H-benzimidazole]: the pIC50 on human LXRβ is 7.48; at human LXRα it was 6.56. Besides, the pEC50 with ABCA1 gene (Homo sapiens, THP-1, 18 h) was 6.96.
Take `Cc1cc(Oc2cccc(S(=O)(=O)C(C)C)c2)ccc1-n1c(C)nc2c(C(F)(F)F)cccc21` [Example 95, 2-methyl-1-(2-methyl-4-{3-[(1-methylethyl)sulfonyl]phenoxy}phenyl)-4-(trifluoromethyl)-1H-benzimidazole]: the negative logarithm of the IC50 (pIC50) at human LXRβ was 7.21; at human LXRα, 5.89. In the assay with ABCA1 gene (setting [1]), the pEC50 was 6.39.
Regarding `Cc1nc2c(C(F)(F)F)cccc2n1-c1cccc(OCc2cccc(S(C)(=O)=O)c2)c1` [Example 107, 2-methyl-1-(3-{[3-(methylsulfonyl)benzyl]oxy}phenyl)-4-(trifluoromethyl)-1H-benzimidazole], the pIC50 at human LXRβ is 6.92; at human LXRα it was 5.71. For the same compound, the pEC50 in the assay with ABCA1 gene (setting [1]) is 5.45.

Source of the values: patent US20110034526A1, “Benzimidazole Compounds” (Wyeth LLC, priority 2007, published 2011).
